The text below walks through data of PMC10350920, “Development of a 2,4-Diaminothiazole Series for the Treatment of Human African Trypanosomiasis Highlights the Importance of Static–Cidal Screening of Analogues” (Journal of Medicinal Chemistry, 2023).

Where two headings read alike, the source gives them in different places. Some results are limits rather than exact numbers.

As usually defined, the Tmax is the time at which the peak concentration occurs. Usually EC50 stands for the concentration needed to bring the measured effect to its halfway point. By solubility is commonly meant the dissolved amount per volume that the medium holds.

The conditions of series [1]: mouse, in vivo, ip.
Series [2] can be described thus: Pharmacokinetics in HRN mice. The following applies: IP, 10 mg kg^–1.
In a further series the test system is T. brucei RES I. In words: Drug sensitivity, compound 38-resistant clone RES I. Type of series: cell-based, T. b. brucei. The procedure: (§1) Drug sensitivity assays were carried out with BSF T. b. brucei “single marker” S427 or BSF T. b. brucei, Lister 427, MiTat 1.2, clone 221a 2T1 cells,[45] cells grown at 37 °C with 5% CO2 in an HMI-9T medium[46] as previously described.[47] 2T1 cells were initially maintained with 1 μg mL^–1 puromycin and 1 μg mL^–1 phleomycin prior to transfection or 2.5 μg mL^–1 hygromycin and 1 μg mL^–1 phleomycin after transfection. Induction of overexpression was achieved by the addition of 1 μg mL^–1 tetracycline to the culture medium.
(§2) Compound-resistant cell lines were generated by subculturing a clone of T. brucei in the continuous presence of 38. Starting at sublethal concentrations, drug concentrations in two independent cultures were increased in a stepwise manner, usually 2-fold. When parasites were able to survive and grow in concentrations of drugs equivalent to more than 10 times the established EC50 value, the resulting cell lines were cloned by limiting dilution in the presence of the compound. Two clones (RES I-II) were selected for further biological study. A standard alkaline lysis protocol was used to isolate genomic DNA from compound-resistant bloodstream T. brucei parasites (∼1 × 10^8). Whole genome sequencing was performed using a DNB-seq next-generation sequencing platform (BGI, Hong Kong). Sequencing reads (150 bp) were aligned to the T. brucei TREU927 genome (v39; tritrypDB) using Bowtie2[48] and Samtools[49] software. […] Samtools and BCFtools[52] (mpileup) were used to call SNP and indels compared with the wild-type starter clone, where the overall quality score (QUAL) was >100. Artemis[50] was used to analyze chromosome and gene copy number variation, as well as visualization of SNPs.

Series [3] in a line: Kinetic aqueous solubility (laser nephelometry). Type of series: physicochemical. As to conditions: Milli-Q water with 2.5% DMSO. The procedure: The kinetic aqueous solubility of the test compounds was measured using laser nephelometry. Compounds were subject to serial dilution from 10 to 0.5 mM in DMSO. An aliquot was then mixed with Milli-Q water to obtain an aqueous dilution plate with a final concentration range of 13–250 μM, with a final DMSO concentration of 2.5%. Triplicate aliquots were transferred to a flat-bottomed polystyrene plate which was immediately read on the NEPHELOstar (BMG Lab Technologies). The amount of laser scatter caused by insoluble particulates (relative nephelometry units, RNUs) was plotted against compound concentration using a segmental regression fit, with the point of inflection being quoted as the compound’s aqueous solubility (μM).

The subject of a further series is T. brucei wild-type. Put plainly: Drug sensitivity, wild-type parental line. The class given is cell-based, T. b. brucei. As to conditions: Trypanosoma brucei; weighted mean of ≥3 independent experiments. The procedure:
as §1, §2

For series [4], the system named is Tb927.8.6290 overexpressing cell lines (WT). Put plainly: Drug sensitivity, line overexpressing Tb927.8.6290 WT. Type of series: cell-based, T. b. brucei. The following applies: for EC50: Trypanosoma brucei. The protocol: as §1
The following primers were used to PCR amplify Tb927.8.6290 from genomic DNA isolated from wild-type and 38-resistant trypanosomes 5′-[…]-3′ (PacI site in bold) and 5′-[…]-3′ (BamHI site in bold). The PCR products (1272 bp) were then cloned into the pRPa plasmid.[53] The accuracy of the plasmid constructs was confirmed by in-house Sanger sequencing and then linearized with AscI prior to transfection. The linearized plasmids were introduced into 2T1 T. b. brucei cells following removal of puromycin from the media and selected with 2.5 μg mL^–1 hygromycin and 1 μg mL^–1 phleomycin. Two independent clones were selected for further studies.

As for “(4-Amino-2-(cyclohexylamino)thiazol-5-yl)(2,6-difluorophenyl)methanone [Compound 16]”, the “exposure in HRN mice relative to NMRI mice” value in series [1] was determined as 15 fold. Moreover, in series [2], the AUC is recorded as 1,000,000 ng mL h^–1 and the Tmax stood at 30 min.
With `CC(C)(O)CC(=O)c1sc(Nc2ccc(F)c(F)c2)nc1N` [Compound 38, 1-(4-Amino-2-((3,4-difluorophenyl)amino)thiazol-5-yl)-3-hydroxy-3-methylbutan-1-one], the EC50 in the series on T. brucei RES I (Trypanosoma brucei, read-out: EC50, RES I) amounted to 2.2 ± 0.084 µM; in the series with T. brucei wild-type it was 0.31 ± 0.004 µM; in series [4] (read-out: EC50, WT +TET), 10 ± 0.25 µM; in series [4] (read-out: EC50, WT –TET), 0.4 ± 0.025 µM. Besides, the “fold resistance, RES I” value in the series on T. brucei RES I (relative to the parental wild-type, in brackets) was 7. The molecule further displayed a solubility in series [3] greater than 100 µg/mL. In addition, the “fold shift, WT” value in series [4] (−TET vs +TET EC50, in brackets) stood at 26.
